Values joined by “and” are separate entries in the source; they are usually repeats but may differ in a detail not shown here. Identical values can stand only once.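 Five compound concentrations were applied to cells in 96-well plates for 48 hours; endpoints were derived by simple linear interpolation of the resulting dose-response curve. GI50 = concentration required for 50% inhibition of growth. Definition used: TGI = concentration required for complete inhibition of growth.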
How the values were obtained:
Experiment in all cases: NCI tumour cell line growth inhibition, 48 h
[1] = test system: 786-0 renal
[2] = test system: A498 renal
[3] = test system: A549 NSCLC
[4] = test system: ACHN renal
[5] = test system: BT-549 breast
[6] = test system: CAKI-1 renal
[7] = test system: CCRF-CEM leukemia
[8] = test system: COLO 205 colon
[9] = test system: DLD-1 colon
[10] = test system: DMS 114 small cell lung
[11] = test system: DMS 273 small cell lung
[12] = test system: DU-145 prostate
[13] = test system: EKVX NSCLC
[14] = test system: HCC-2998 colon
[15] = test system: HCT-116 colon
[16] = test system: HCT-15 colon
[17] = test system: HL-60(TB) leukemia
[18] = test system: HOP-18 NSCLC
[19] = test system: HOP-62 NSCLC
[20] = test system: HS 578T breast
[21] = test system: HT29 colon
[22] = test system: IGROV1 ovarian
[23] = test system: K-562 leukemia
[24] = test system: KM12 colon
[25] = test system: KM20L2 colon
[26] = test system: LOX IMVI melanoma
[27] = test system: LXFL 529 NSCLC
[28] = test system: M14 melanoma
[29] = test system: M19-MEL melanoma
[30] = test system: MALME-3M melanoma
[31] = test system: MCF7 breast
[32] = test system: MDA-MB-231 breast
[33] = test system: MDA-MB-435
[34] = test system: MDA-N
[35] = test system: MOLT-4 leukemia
[36] = test system: NCI-H226 lung
[37] = test system: NCI-H460 lung
[38] = test system: NCI-H522 lung
[39] = test system: NCI/ADR-RES ovarian
[40] = test system: OVCAR-3 ovarian
[41] = test system: OVCAR-4 ovarian
[42] = test system: OVCAR-5 ovarian
[43] = test system: OVCAR-8 ovarian
[44] = test system: P388 leukemia
[45] = test system: P388/ADR leukemia
[46] = test system: PC-3 prostate
[47] = test system: RPMI-8226 leukemia
[48] = test system: RXF 393 renal
[49] = test system: SF-268 CNS
[50] = test system: SF-295 CNS
[51] = test system: SF-539 CNS
[52] = test system: SK-MEL-2 melanoma
[53] = test system: SK-MEL-28 melanoma
[54] = test system: SK-MEL-5 melanoma
[55] = test system: SK-OV-3 ovarian
[56] = test system: SN12C renal
[57] = test system: SN12K1 renal
[58] = test system: SNB-19 CNS
[59] = test system: SNB-75 CNS
[60] = test system: SR leukemia
[61] = test system: SW-620 colon
[62] = test system: T-47D breast
[63] = test system: TK-10 renal
[64] = test system: U251 CNS
[65] = test system: UACC-257 melanoma
[66] = test system: UACC-62 melanoma
[67] = test system: UO-31 renal
[68] = test system: XF 498 CNS
[69] = test system: HOP-92 NSCLC
[70] = test system: NCI-H23 lung
[71] = test system: RXF-631 renal
[72] = test system: SNB-78 CNS

## Nc1ccn(C2OC(CO)C(O)C2O)c(=O)n1 (centres undefined)
[1]
  GI50: 0.396 µM
  TGI: > 100 µM and 388 µM and > 500 µM
[2]
  GI50: 12 µM and 4.38 µM and 20.8 µM
  TGI: > 100 µM and 424 µM
[3]
  GI50: 0.422 µM
[4]
  GI50: 0.195 µM and 0.532 µM
  TGI: > 100 µM and > 35 µM and 151 µM
[5]
  GI50: 7.08 µM
  TGI: > 500 µM
[6]
  GI50: 0.107 µM
[7]
  GI50: < 0.0107 µM and 0.00608 µM and 0.0148 µM
[8]
  TGI: > 500 µM
[9]
  TGI: > 500 µM
[10]
  TGI: 417 µM
[11]
  TGI: 344 µM
[12]
  GI50: 0.536 µM
[13]
  TGI: > 500 µM
[14]
  GI50: 1.69 µM
  TGI: > 100 µM and 429 µM and > 500 µM
[15]
  GI50: 0.142 µM
  TGI: > 500 µM
[16]
  TGI: > 500 µM
[17]
  GI50: 0.493 µM
[18]
  GI50: 77.1 µM
  TGI: 250 µM
[19]
  GI50: 0.237 µM
[20]
  TGI: > 500 µM
[21]
  GI50: 2.01 µM
  TGI: > 500 µM
[22]
  GI50: 37.9 µM
  TGI: > 500 µM
[23]
  GI50: 0.477 µM and 0.464 µM and 4.64 µM
  TGI: > 500 µM
[24]
  TGI: > 500 µM
[25]
  TGI: > 482 µM
[26]
  GI50: 0.829 µM
[27]
  TGI: > 500 µM
[28]
  GI50: 0.103 µM and 0.285 µM and 0.976 µM
[29]
  GI50: 15.6 µM
  TGI: > 500 µM
[30]
  GI50: 0.0741 µM
[31]
  GI50: 0.0408 µM
  TGI: > 100 µM and 434 µM and > 500 µM
[32]
  TGI: > 500 µM
[33]
  GI50: 0.671 µM
  TGI: > 500 µM
[34]
  TGI: > 500 µM
[35]
  GI50: 0.0103 µM and 0.0148 µM
[36]
  GI50: 0.637 µM
  TGI: > 500 µM
[37]
  GI50: 0.114 µM and 0.231 µM and 0.12 µM
  TGI: > 100 µM and 418 µM
[38]
  TGI: > 500 µM
[39]
  GI50: 0.532 µM
[40]
  GI50: 3.74 µM
  TGI: > 100 µM and 500 µM and > 500 µM
[41]
  TGI: > 500 µM
[42]
  TGI: > 100 µM and 392 µM and > 500 µM
[43]
  GI50: 0.392 µM
  TGI: > 500 µM
[44]
  TGI: 1.81 µM
[45]
  TGI: 1.15 µM
[46]
  GI50: > 46.3 µM
  TGI: > 500 µM
[47]
  GI50: 3.75 µM
  TGI: > 500 µM
[48]
  GI50: 13.6 µM
  TGI: > 500 µM
[49]
  GI50: 1.01 µM
  TGI: > 500 µM
[50]
  GI50: 0.661 µM
  TGI: > 100 µM and 417 µM and > 500 µM
[51]
  GI50: 16.8 µM
[52]
  TGI: > 500 µM
[53]
  TGI: > 500 µM
[54]
  GI50: 2.89 µM
[55]
  GI50: 2.7 µM
  TGI: > 500 µM
[56]
  GI50: 2.05 µM
  TGI: > 100 µM and 457 µM and > 500 µM
[57]
  TGI: > 500 µM
[58]
  GI50: 2.19 µM
  TGI: > 100 µM and 469 µM and > 500 µM
[59]
  TGI: > 500 µM
[60]
  TGI: > 100 µM and > 29.3 µM and 53.7 µM
[61]
  GI50: 0.847 µM
  TGI: > 100 µM and 462 µM and > 500 µM
[62]
  GI50: 4.2 µM
  TGI: > 500 µM
[63]
  TGI: > 500 µM
[64]
  GI50: 0.635 µM
  TGI: > 500 µM
[65]
  GI50: 14.4 µM
  TGI: > 500 µM
[66]
  GI50: 1.93 µM
[67]
  GI50: 0.715 µM
[68]
  TGI: > 494 µM

## COc1ccc2c(c1)CCCN2CCCCCCCCCCN(CCC(C)C)CCC(C)C
[1]
  TGI: 27.5 µM
[2]
  TGI: 31 µM
[3]
  TGI: 26.2 µM
[4]
  TGI: 22.8 µM
[6]
  TGI: 28.9 µM
[7]
  TGI: 32.9 µM
[8]
  TGI: 26.6 µM
[9]
  TGI: 22.6 µM
[10]
  TGI: 19.5 µM
[11]
  TGI: 23.2 µM
[13]
  TGI: 20 µM
[14]
  TGI: 19.2 µM
[16]
  TGI: 23.4 µM
[17]
  TGI: 9.61 µM
[18]
  TGI: 24.7 µM
[19]
  TGI: 26.1 µM
[69]
  TGI: 17 µM
[21]
  TGI: 18 µM
[22]
  TGI: 27.7 µM
[23]
  TGI: 40 µM
[24]
  TGI: 17.4 µM
[25]
  TGI: 23.1 µM
[26]
  TGI: 29.1 µM
[27]
  TGI: 21.8 µM
[28]
  TGI: 27.2 µM
[29]
  TGI: 30.7 µM
[30]
  TGI: 28.1 µM
[35]
  TGI: 22.6 µM
[36]
  TGI: 31.3 µM
[70]
  TGI: 12.7 µM
[37]
  TGI: 24.3 µM
[38]
  TGI: 5.68 µM
[40]
  TGI: 17.3 µM
[41]
  TGI: 19.4 µM
[42]
  TGI: 28.4 µM
[47]
  TGI: 6.18 µM
[71]
  TGI: 27.3 µM
[49]
  TGI: 25.6 µM
[50]
  TGI: 27.4 µM
[51]
  TGI: 11.1 µM
[52]
  TGI: 22.8 µM
[53]
  TGI: 27.2 µM
[54]
  TGI: 18.9 µM
[55]
  TGI: 40.9 µM
[58]
  TGI: 27.7 µM
[72]
  TGI: 38.1 µM
[61]
  TGI: 26.2 µM
[63]
  TGI: 31.9 µM
[64]
  TGI: 26.6 µM
[65]
  TGI: 32.5 µM
[66]
  TGI: 27.1 µM
[67]
  TGI: 10.2 µM
[68]
  TGI: 20.9 µM

## CN(C)C(=O)/C=C/c1c[nH]c(=O)[nH]c1=O
[2]
  TGI: > 500 µM
[3]
  TGI: > 500 µM
[6]
  TGI: > 500 µM
[7]
  TGI: > 500 µM
[8]
  TGI: > 500 µM
[9]
  TGI: > 500 µM
[10]
  TGI: > 500 µM
[11]
  TGI: > 500 µM
[13]
  TGI: > 281 µM
[14]
  TGI: > 500 µM
[15]
  TGI: > 500 µM
[16]
  TGI: > 500 µM
[17]
  TGI: > 316 µM
[18]
  TGI: > 500 µM
[19]
  TGI: > 500 µM
[69]
  TGI: > 500 µM
[21]
  TGI: > 500 µM
[22]
  TGI: > 500 µM
[23]
  TGI: > 500 µM
[24]
  TGI: > 500 µM
[25]
  TGI: > 500 µM
[26]
  TGI: > 500 µM
[30]
  TGI: > 500 µM
[31]
  TGI: > 500 µM
[35]
  TGI: > 500 µM
[36]
  TGI: > 500 µM
[70]
  TGI: > 500 µM
[37]
  TGI: > 500 µM
[38]
  TGI: > 500 µM
[39]
  TGI: > 500 µM
[40]
  TGI: > 500 µM
[41]
  TGI: > 500 µM
[42]
  TGI: > 500 µM
[43]
  TGI: > 500 µM
[44]
  TGI: > 281 µM
[45]
  TGI: > 281 µM
[47]
  TGI: > 316 µM
[48]
  TGI: > 500 µM
[49]
  TGI: > 500 µM
[50]
  TGI: > 500 µM
[51]
  TGI: > 500 µM
[52]
  TGI: > 500 µM
[53]
  TGI: > 500 µM
[54]
  TGI: > 500 µM
[55]
  TGI: > 280 µM
[56]
  TGI: > 500 µM
[57]
  TGI: > 500 µM
[58]
  TGI: > 500 µM
[59]
  TGI: > 500 µM
[61]
  TGI: > 500 µM
[64]
  TGI: > 500 µM
[65]
  TGI: > 500 µM
[66]
  TGI: > 500 µM
[67]
  TGI: > 500 µM
